Drawing on patent EP4813991A1 (iLeadBMS Co., Ltd., priority 2023, dated 2025), this text covers IC50, CDK1/CDK12 and CDK2/CDK12 for 11 compounds.

SMILES strings stand for the structures. Like-named read-outs stand apart in the source and are kept apart here.

The target in assay [1] is T1, CDK12 (Homo sapiens, UniProt Q9NYV4). Nature of the assay: CDK12 kinase inhibitory activity assay (33P-ATP filter binding). Type of assay: biochemical. A digest of the protocol: (§1)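 Compound in 9 concentrations pre-incubated 20 min with kinase and substrate, then ^33P-γ-ATP added and reacted 120 min at room temperature. Phosphorylated substrate captured on filter, washed with 0.75 % phosphoric acid and counted; activity as % of DMSO control, IC50 fitted.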

Assay [2] deals with CDK13 (Homo sapiens, UniProt Q14004). The assay is described as follows: CDK13 kinase inhibitory activity assay (33P-ATP filter binding). Type of assay: biochemical. The method in brief: as §1
The subject of assay [3] is MDA-MB-231 breast cancer cells. Nature of the assay: Proliferation inhibitory activity assay against MDA-MB-231 breast cancer cells. Type of assay: cell-based. To be noted: Homo sapiens, 72 hours, CellTiter Glo, relative IC50. The method in brief:
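Cells grown in L-15 with 10% FBS at 37 °C, 0% CO2, then exposed next day to compounds at 9 concentrations (DMSO vehicle) for 72 h. Viability read by CellTiter Glo luminescence; relative IC50 from dose-response curve fit.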
(In general: In ATP-based viability assays light output follows the ATP content of the culture.)

In assay [4] the target is CDK1 (Homo sapiens, UniProt P06493). The assay is described as follows: CDK1 kinase inhibitory activity assay and selectivity over CDK12. To be noted: for IC50: kinase reaction 120 minutes, 33P-gamma-ATP; for CDK1/CDK12: ratio of CDK1 IC50 to CDK12 IC50. The assay is classed as biochemical. The procedure:
(§2) Before initiating the CDK1 and CDK2 kinase reactions, each Example compound was dissolved and diluted in DMSO as a solvent across 9 concentration ranges at room temperature. The diluted solutions were then incubated with a mixture of kinase and substrate (and cofactors, if required) for 20 minutes. Next, radioisotope-labeled ATP (^33P-gamma-ATP) was added to proceed with the kinase reaction at room temperature for 120 minutes. After the reaction was completed, the reaction mixture was transferred to a filter paper that binds the radioisotope-labeled catalytic product (^33P-substrate). Unreacted ^33P-ATP was removed by washing with 0.75 % phosphoric acid, and then the radioactive phosphorylated substrate remaining on the filter paper was measured. Kinase activity data were expressed as a percentage of the kinase activity remaining in the test sample compared to a DMSO control group. The half-maximal inhibitory concentration (IC50) for each kinase was calculated using Prism software.
(§3) The CDK1 and CDK2 kinase inhibitory activities of the Example compounds measured by the above method were evaluated according to the following criteria, and the results are presented in Table 14.

Assay [5] addresses CDK2 (Homo sapiens, UniProt P24941). Nature of the assay: CDK2 kinase inhibitory activity assay and selectivity over CDK12. Type of assay: biochemical. To be noted: for IC50: kinase reaction 120 minutes, 33P-gamma-ATP; for CDK2/CDK12: ratio of CDK2 IC50 to CDK12 IC50. The procedure: as §2, §3
In assay [6] the target is T1, CDK12. The assay is described as follows: Cellular CDK12 inhibitory activity assay (Ser2 phosphorylation of RNA polymerase II subunit B1 CTD in MDA-MB-231 cells). The assay is classed as cell-based. More on the design: using MDA-MB-231 breast cancer cells; endogenous in cells; host or cells: MDA-MB-231. To be noted: MDA-MB-231 cells, 6 hours treatment; read-out: pRpbl CTD S2 IC50. The method in brief:
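MDA-MB-231 cells in L-15 with 10 % FBS were treated with compound at 9 concentrations for 6 h at 37 °C, 0 % CO2. In-Cell Western read phospho-Ser2 and total RNA polymerase II CTD on a Li-COR Odyssey; IC50 from 4-parameter dose-response fit.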

Setting [7] is: kinase reaction 120 minutes, 33P-gamma-ATP, read-out: CDK13 IC50.
[8] abbreviates: kinase reaction 120 minutes, 33P-gamma-ATP, read-out: CDK12 IC50.

Sequence of CDK1 (P06493 whole entry, species assumed): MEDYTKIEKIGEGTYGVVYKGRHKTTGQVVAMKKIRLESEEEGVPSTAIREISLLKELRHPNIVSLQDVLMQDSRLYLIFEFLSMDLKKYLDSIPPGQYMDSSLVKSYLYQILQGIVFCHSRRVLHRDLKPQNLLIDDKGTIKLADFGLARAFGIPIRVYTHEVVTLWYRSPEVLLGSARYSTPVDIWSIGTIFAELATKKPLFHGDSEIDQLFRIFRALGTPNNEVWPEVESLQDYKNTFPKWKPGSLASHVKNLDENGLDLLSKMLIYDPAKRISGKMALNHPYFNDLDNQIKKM
Sequence of CDK1 (P14635 whole entry partner, species assumed): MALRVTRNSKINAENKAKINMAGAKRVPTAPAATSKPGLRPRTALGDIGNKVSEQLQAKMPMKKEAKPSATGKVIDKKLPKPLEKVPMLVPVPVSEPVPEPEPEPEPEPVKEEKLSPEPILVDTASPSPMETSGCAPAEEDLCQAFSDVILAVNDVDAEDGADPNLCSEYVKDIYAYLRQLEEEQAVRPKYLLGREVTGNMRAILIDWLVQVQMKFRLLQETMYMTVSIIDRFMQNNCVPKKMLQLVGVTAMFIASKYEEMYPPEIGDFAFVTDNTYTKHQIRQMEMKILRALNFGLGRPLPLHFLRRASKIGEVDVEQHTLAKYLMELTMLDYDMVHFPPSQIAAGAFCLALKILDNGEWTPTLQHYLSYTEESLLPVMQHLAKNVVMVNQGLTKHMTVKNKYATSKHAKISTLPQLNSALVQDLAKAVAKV
T1 sequence (Q9NYV4 whole entry, species assumed): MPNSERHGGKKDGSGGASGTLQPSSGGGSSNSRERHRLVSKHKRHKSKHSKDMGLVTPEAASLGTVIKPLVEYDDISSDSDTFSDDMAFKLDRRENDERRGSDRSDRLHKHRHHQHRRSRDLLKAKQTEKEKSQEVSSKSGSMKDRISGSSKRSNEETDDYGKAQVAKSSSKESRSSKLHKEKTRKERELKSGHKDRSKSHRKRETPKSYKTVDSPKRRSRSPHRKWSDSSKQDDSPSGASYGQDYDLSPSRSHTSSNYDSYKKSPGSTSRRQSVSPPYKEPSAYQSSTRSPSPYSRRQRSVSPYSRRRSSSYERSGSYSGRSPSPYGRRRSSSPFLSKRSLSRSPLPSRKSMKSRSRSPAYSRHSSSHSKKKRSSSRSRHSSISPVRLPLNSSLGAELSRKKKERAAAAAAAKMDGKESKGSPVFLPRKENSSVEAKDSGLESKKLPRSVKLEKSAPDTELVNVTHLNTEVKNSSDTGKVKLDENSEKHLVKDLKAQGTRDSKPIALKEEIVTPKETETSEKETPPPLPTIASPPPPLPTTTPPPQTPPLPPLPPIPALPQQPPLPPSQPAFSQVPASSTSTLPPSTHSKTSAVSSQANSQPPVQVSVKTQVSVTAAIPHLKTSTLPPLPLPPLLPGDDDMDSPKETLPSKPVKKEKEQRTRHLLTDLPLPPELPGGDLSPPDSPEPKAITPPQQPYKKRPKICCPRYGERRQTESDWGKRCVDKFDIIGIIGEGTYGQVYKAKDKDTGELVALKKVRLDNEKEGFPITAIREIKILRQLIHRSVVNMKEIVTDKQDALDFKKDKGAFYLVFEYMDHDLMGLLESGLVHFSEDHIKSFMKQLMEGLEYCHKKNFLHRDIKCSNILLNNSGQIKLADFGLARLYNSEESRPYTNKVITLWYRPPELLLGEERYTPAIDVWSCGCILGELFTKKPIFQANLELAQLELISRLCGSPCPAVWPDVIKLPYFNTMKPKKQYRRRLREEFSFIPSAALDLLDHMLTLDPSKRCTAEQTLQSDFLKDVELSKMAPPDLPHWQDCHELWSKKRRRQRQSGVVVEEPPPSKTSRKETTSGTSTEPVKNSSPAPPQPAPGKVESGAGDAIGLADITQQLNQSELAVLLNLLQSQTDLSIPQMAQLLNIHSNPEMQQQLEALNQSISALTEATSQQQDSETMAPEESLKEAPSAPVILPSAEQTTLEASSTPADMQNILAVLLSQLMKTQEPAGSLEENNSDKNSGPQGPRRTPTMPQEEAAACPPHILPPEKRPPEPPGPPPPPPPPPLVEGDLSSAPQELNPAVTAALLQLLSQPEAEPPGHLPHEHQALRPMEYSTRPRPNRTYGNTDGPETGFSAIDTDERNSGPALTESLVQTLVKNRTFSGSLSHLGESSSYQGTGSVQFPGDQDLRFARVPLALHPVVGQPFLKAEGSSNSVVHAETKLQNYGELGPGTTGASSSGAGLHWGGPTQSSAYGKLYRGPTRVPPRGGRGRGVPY
T1 sequence (O75909 whole entry partner, species assumed): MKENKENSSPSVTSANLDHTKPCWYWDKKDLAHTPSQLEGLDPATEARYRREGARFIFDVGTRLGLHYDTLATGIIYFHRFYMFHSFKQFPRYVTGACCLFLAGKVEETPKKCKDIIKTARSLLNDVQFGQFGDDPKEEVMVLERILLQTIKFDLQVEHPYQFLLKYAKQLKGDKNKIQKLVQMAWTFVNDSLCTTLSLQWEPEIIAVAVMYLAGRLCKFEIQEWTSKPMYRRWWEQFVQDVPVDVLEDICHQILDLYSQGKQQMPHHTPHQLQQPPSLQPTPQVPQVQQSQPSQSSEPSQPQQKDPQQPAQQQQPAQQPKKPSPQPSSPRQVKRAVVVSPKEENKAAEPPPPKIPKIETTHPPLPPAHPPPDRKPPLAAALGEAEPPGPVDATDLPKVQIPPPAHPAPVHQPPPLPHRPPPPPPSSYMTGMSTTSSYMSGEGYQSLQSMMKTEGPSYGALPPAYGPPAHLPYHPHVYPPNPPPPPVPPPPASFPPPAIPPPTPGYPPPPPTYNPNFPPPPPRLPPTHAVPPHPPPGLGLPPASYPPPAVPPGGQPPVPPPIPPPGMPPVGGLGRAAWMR
Sequence of CDK13 (Q14004 whole entry, species assumed): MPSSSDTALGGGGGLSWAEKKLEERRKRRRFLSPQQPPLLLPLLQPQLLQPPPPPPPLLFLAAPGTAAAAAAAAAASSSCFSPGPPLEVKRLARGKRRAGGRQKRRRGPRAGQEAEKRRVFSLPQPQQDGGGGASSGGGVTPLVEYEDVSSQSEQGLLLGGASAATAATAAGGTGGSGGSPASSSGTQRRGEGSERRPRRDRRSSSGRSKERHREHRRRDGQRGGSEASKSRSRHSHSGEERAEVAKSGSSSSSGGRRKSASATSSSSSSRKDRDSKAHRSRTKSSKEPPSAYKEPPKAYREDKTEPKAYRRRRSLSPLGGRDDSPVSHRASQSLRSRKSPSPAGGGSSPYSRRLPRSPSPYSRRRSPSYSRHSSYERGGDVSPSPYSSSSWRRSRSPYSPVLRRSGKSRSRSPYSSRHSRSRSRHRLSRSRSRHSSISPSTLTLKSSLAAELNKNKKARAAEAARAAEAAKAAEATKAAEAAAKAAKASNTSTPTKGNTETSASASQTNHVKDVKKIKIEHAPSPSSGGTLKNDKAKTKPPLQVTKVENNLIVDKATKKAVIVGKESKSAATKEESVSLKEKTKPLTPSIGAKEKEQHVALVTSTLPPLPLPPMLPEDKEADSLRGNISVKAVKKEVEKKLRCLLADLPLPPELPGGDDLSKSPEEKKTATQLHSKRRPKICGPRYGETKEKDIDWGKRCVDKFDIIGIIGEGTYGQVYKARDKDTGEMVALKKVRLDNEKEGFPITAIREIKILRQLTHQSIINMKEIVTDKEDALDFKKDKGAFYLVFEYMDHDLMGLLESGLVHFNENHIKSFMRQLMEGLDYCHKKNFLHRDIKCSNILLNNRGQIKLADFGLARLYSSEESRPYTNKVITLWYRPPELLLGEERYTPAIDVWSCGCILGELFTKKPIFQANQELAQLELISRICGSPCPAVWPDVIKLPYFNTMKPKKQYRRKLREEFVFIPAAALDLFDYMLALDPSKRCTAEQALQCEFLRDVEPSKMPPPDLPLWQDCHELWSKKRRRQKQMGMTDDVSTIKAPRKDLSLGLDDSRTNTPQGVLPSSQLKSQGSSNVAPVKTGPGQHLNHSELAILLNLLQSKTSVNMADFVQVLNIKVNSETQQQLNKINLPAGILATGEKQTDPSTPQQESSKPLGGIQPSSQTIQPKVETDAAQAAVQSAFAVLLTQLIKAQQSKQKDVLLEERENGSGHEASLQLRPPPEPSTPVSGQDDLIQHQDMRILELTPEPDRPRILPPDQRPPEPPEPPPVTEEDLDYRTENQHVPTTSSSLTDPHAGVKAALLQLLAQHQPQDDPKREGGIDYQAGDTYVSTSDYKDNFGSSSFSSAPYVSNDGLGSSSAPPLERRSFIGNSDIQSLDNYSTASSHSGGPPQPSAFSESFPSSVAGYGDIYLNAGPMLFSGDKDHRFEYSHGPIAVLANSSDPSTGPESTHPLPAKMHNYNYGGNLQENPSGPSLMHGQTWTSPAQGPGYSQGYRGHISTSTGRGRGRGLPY
Sequence of CDK13 (O75909 whole entry partner, species assumed): as the sequence (O75909 whole entry partner, species assumed) above

One may read the IC50 as the concentration that inhibits the measured activity by half. As for `FC(F)(F)c1cnc2c(NCc3nc4cc(Cl)c(Cl)cc4[nH]3)cc(N3CC4CCC(C3)O4)nn12` [Example 42], the IC50 is 100 to 500 nM in assay [1]; under 100 nM in assay [2] (setting [7]); 50 to 500 nM in assay [3]; over 1000 nM in assay [4]; over 1000 nM in assay [5]; 300 to 3000 nM in assay [6].
Take `O=C(CO)NC1CCN(c2cc(NCc3nc4cc(Cl)c(Cl)cc4[nH]3)c3ncc(C(F)(F)F)n3n2)CC1` [Example 115, N-(1-(8-(((5,6-dichloro-1H-benzo[d]imidazol-2-yl)methyl)amino)-3-(trifluoromethyl)imidazo[1,2-b]pyridazin-6-yl)piperidin-4-yl)-2-hydroxyacetamide]: the IC50 in assay [1] (setting [8]) was under 100 nM; in assay [2] it was under 100 nM; in assay [3] it was at most 50 nM; in assay [4], over 1000 nM; in assay [5] it was over 1000 nM; in assay [6] it was under 300 nM. The CDK1/CDK12 entry in assay [4] was “B (100-fold < CDK1/CDK12 or CDK2/CDK12 ≤ 500-fold)”. Moreover, the CDK2/CDK12 entry in assay [5] was “B (100-fold < CDK1/CDK12 or CDK2/CDK12 ≤ 500-fold)”.
As to `Fc1ccc2nc(CNc3cc(N4C5CCC4COC5)nn4c(C(F)(F)F)cnc34)[nH]c2c1F` [Example 7, 6-(3-oxa-8-azabicyclo[3.2.1]octan-8-yl)-N-((6,7-difluoro-1H-benzo[d]imidazol-2-yl)methyl)-3-(trifluoromethyl)imidazo[1,2-b]pyridazin-8-amine], the IC50 is 100 to 500 nM in assay [1] (setting [8]); under 100 nM in assay [2]; at most 50 nM in assay [3]; over 1000 nM in assay [4]; over 1000 nM in assay [5]; under 300 nM in assay [6]. Also, in assay [4], the CDK1/CDK12 entry was “C (CDK1/CDK12 or CDK2/CDK12 ≤ 100-fold)”. Further, the CDK2/CDK12 result in assay [5] is reported as “C (CDK1/CDK12 or CDK2/CDK12 ≤ 100-fold)”.
As to `Fc1ccc2nc(CNc3cc(N4CCOCC4)nn4c(C5CC5)cnc34)[nH]c2c1F` [Example 23, 3-cyclopropyl-N-((6,7-difluoro-lH-benzo[d]imidazol-2-yl)methyl)-6-morpholinoimidazo[1,2-b]pyridazin-8-amine], the IC50 was 100 to 500 nM in assay [1]; under 100 nM in assay [2] (setting [7]); 50 to 500 nM in assay [3]; over 1000 nM in assay [4]; over 1000 nM in assay [5]; 300 to 3000 nM in assay [6].
On to `Fc1ccc2[nH]c(CNc3cc(N4CCOCC4)nn4c(C(F)(F)F)cnc34)nc2c1` [Example 77, N-((5-fluoro-1H-benzo[d]imidazol-2-yl)methyl)-6-morpholino-3-(trifluoromethyl)imidazo[1,2-b]pyridazin-8-amine], for which the IC50 was under 100 nM in assay [1] (setting [8]); under 100 nM in assay [2] (setting [7]); at most 50 nM in assay [3]; over 1000 nM in assay [4]; over 1000 nM in assay [5]; under 300 nM in assay [6]. In addition, the CDK1/CDK12 entry in assay [4] is “A (CDK1/CDK12 or CDK2/CDK12 > 500-fold)”. In assay [5], the CDK2/CDK12 result is “B (100-fold < CDK1/CDK12 or CDK2/CDK12 ≤ 500-fold)”.
`Fc1ccc2nc(CNc3cc(N4C5CCC4CNC5)nn4c(C(F)(F)F)cnc34)[nH]c2c1F` [Example 11, 6-(3,8-diazabicyclo[3.2.1]octan-8-yl)-N-((6,7-difluoro-1H-benzo[d]imidazol-2-yl)methyl)-3-(trifluoromethyl)imidazo[1,2-b]pyridazin-8-amine]: the IC50 in assay [1] (setting [8]) is under 100 nM; in assay [2] (setting [7]), under 100 nM; in assay [3] it was at most 50 nM; in assay [4], 100 to 1000 nM; in assay [5], 100 to 1000 nM; in assay [6] it was under 300 nM. For the same compound, in assay [4], the CDK1/CDK12 result is recorded as “B (100-fold < CDK1/CDK12 or CDK2/CDK12 ≤ 500-fold)”. Besides, in assay [5], the CDK2/CDK12 result is recorded as “B (100-fold < CDK1/CDK12 or CDK2/CDK12 ≤ 500-fold)”.
As to `COc1cc2nc(CNc3cc(N4CCOCC4)nn4c(C(F)(F)F)cnc34)[nH]c2cc1Cl` [Example 71, N-((6-chloro-5-methoxy-1H-benzo[d]imidazol-2-yl)methyl)-6-morpholino-3-(trifluoromethyl)imidazo[1,2-b]pyridazin-8-amine], the IC50 in assay [1] (setting [8]) was under 100 nM; in assay [2] (setting [7]) it was under 100 nM; in assay [3] it was at most 50 nM; in assay [4], over 1000 nM; in assay [5], over 1000 nM; in assay [6] it was under 300 nM. Also, the CDK1/CDK12 result in assay [4] was “B (100-fold < CDK1/CDK12 or CDK2/CDK12 ≤ 500-fold)”. For the same compound, the CDK2/CDK12 entry in assay [5] is “B (100-fold < CDK1/CDK12 or CDK2/CDK12 ≤ 500-fold)”.
In the case of `OC1CN(c2cc(NCc3nc4ccc(F)c(F)c4[nH]3)c3ncc(C(F)(F)F)n3n2)C1` [Example 16, 1-(8-(((6,7-difluoro-1H-benzo[d]imidazol-2-yl)methyl)amino)-3-(trifluoromethyl)imidazo[1,2-b]pyridazin-6-yl)azetidin-3-ol], the IC50 in assay [1] (setting [8]) is under 100 nM; in assay [2] (setting [7]) it was under 100 nM; in assay [3], at most 50 nM; in assay [4] it was over 1000 nM; in assay [5], over 1000 nM; in assay [6], 300 to 3000 nM. In addition, in assay [4], the CDK1/CDK12 entry was “B (100-fold < CDK1/CDK12 or CDK2/CDK12 ≤ 500-fold)”. Besides, in assay [5], the CDK2/CDK12 entry is given as “C (CDK1/CDK12 or CDK2/CDK12 ≤ 100-fold)”.
As for `FC(F)(F)c1cnc2c(NCc3nc4cc(Cl)c(Cl)cc4[nH]3)cc(N3CCOCC3)nn12` [Example 68, N-((5,6-dichloro-1H-benzo[d]imidazol-2-yl)methyl)-6-morpholino-3-(trifluoromethyl)imidazo[1,2-b]pyridazin-8-amine], the IC50 in assay [1] (setting [8]) is 100 to 500 nM; in assay [2] (setting [7]) it was under 100 nM; in assay [3], at most 50 nM; in assay [4] it was over 1000 nM; in assay [5] it was over 1000 nM; in assay [6], under 300 nM. Also, in assay [4], the CDK1/CDK12 result is recorded as “C (CDK1/CDK12 or CDK2/CDK12 ≤ 100-fold)”. For the same compound, in assay [5], the CDK2/CDK12 result is “C (CDK1/CDK12 or CDK2/CDK12 ≤ 100-fold)”.
On to `Nc1ncc(-c2cc(NCc3nc4ccc(F)c(F)c4[nH]3)c3ncc(C(F)(F)F)n3n2)cn1` [Example 35], for which the IC50 in assay [1] (setting [8]) was under 100 nM; in assay [2] (setting [7]), under 100 nM; in assay [3] it was at most 50 nM; in assay [4], over 1000 nM; in assay [5], over 1000 nM; in assay [6], under 300 nM. Besides, the CDK1/CDK12 entry in assay [4] was “A (CDK1/CDK12 or CDK2/CDK12 > 500-fold)”. The CDK2/CDK12 entry in assay [5] is reported as “B (100-fold < CDK1/CDK12 or CDK2/CDK12 ≤ 500-fold)”.
Regarding `NC1CCN(c2cc(NCc3nc4ccc(F)c(F)c4[nH]3)c3ncc(C(F)(F)F)n3n2)CC1` [Example 18], the concentration for half-maximal inhibition (IC50) in assay [1] (setting [8]) is under 100 nM; in assay [2] (setting [7]), under 100 nM; in assay [3], at most 50 nM; in assay [4], over 1000 nM; in assay [5], over 1000 nM; in assay [6] it was under 300 nM. Further, the CDK1/CDK12 entry in assay [4] is listed as “A (CDK1/CDK12 or CDK2/CDK12 > 500-fold)”. Moreover, the CDK2/CDK12 result in assay [5] is on record as “A (CDK1/CDK12 or CDK2/CDK12 > 500-fold)”.
